Laboratory results published in patent US11865124B2, “Vitamin c and doxycycline: a synthetic lethal combination therapy for eradicating cancer stem cells (CSCS)” (priority 2017, dated 2024).
Where two headings read alike, the source gives them in different places. One block for each compound: values may come before it.

Legend:
[1] = system: MCF7-DoxyR cells; experiment: Mammosphere formation assay (CSC propagation) in doxycycline-resistant MCF7 cells; format: cell-based
Source text: To test this hypothesis, the inventors generated a cancer cell sub-population metabolically synchronized toward a glycolytic phenotype by chronically treating MCF7 cells with the FDA-approved antibiotic doxycycline, a mitochondrial inhibitor. Briefly, MCF7 cells were obtained from ATCC and cultured in DMEM (Sigma Aldrich). MCF7 cells resistant to doxycycline (MCF7-DoxyR cells) were selected by a stepwise exposure to increasing concentrations of doxycycline. […] It should be appreciated that other cancer cell lines and other mitochondrial (oxidation) inhibitors may be used.
To more directly assess functional CSC activity, mammosphere formation assays may be used. Briefly, a single cell suspension of MCF7 or MCF7 DoxyR cells may be prepared using enzymatic (1× Trypsin-EDTA, Sigma Aldrich), and manual disaggregation (25-gauge needle). Cells may be plated at a density of 500 cells/cm2 in mammosphere medium (DMEM-F12/B27/20-ng/ml EGF/PenStrep) in nonadherent conditions, in culture dishes coated with (2-hydroxyethylmethacrylate) (poly-HEMA, Sigma), in the presence of Atovaquone (FIG. 6A) or Chloroquine (FIG. 6B). Cells may be grown for 5 days and maintained in a humidified incubator at 37° C. at an atmospheric pressure in 5% (v/v) carbon dioxide/air. After 5 days for culture, spheres larger than 50 μm may be counted using an eye piece graticule, and the percentage of cells plated which formed spheres may be calculated. Mammosphere assays may be performed in triplicate and repeated three times independently.
The present approach further involves methods of testing the efficacy of glycolysis inhibitors on CSC propagation using other clinically-approved drugs that functionally behave as OXPHOS inhibitors (Irinotecan, Sorafenib, Niclosamide) or glycolysis inhibitors (Stiripentol) on mammosphere formation. Briefly, MCF7 DoxyR cells were cultured in low attachment plates and treated with Vehicle or increasing concentrations of the lactate dehydrogenase (LDH) inhibitor Stiripentol (2 μM to 100 μM) (FIG. 11A) or the OXPHOS inhibitors Irinotecan (500 nM to 80 μM) (FIG. 11B), Sorafenib (500 nM to 40 μM) (FIG. 11C), Berberine Chloride (500 nM to 10 μM) (FIG. 11D) and Niclosamide (FIG. 11E-F) for 5 days before counting. Independent experiments were performed in triplicate.

[2] = system: MCF7 CSCs; settings: control MCF7 CSCs; Bonuccelli et al, Oncotarget 2017; read-out: IC-50, MCF7 CSC propagation; cited from earlier work
[3] = system: MCF7-DoxyR cells; experiment: Proliferation assay by EdU incorporation (flow cytometry); format: cell-based; settings: MCF7-DoxyR cells (chronic doxycycline) vs MCF7 cells
Source text: To test this hypothesis, the inventors generated a cancer cell sub-population metabolically synchronized toward a glycolytic phenotype by chronically treating MCF7 cells with the FDA-approved antibiotic doxycycline, a mitochondrial inhibitor. Briefly, MCF7 cells were obtained from ATCC and cultured in DMEM (Sigma Aldrich). MCF7 cells resistant to doxycycline (MCF7-DoxyR cells) were selected by a stepwise exposure to increasing concentrations of doxycycline. Specifically, MCF7 cells were initially exposed to 12.5 μM doxycycline, followed by 3 weeks of treatment with 25 μM doxycycline, followed by 3 weeks of treatment with 50 μM doxycycline. […]
To determine functional effects on doxycycline on CSC propagation, proliferation may be measured by determining relative levels of EdU incorporation (EdU refers to the alkyne-containing thymidine analog (5-ethynyl-2′-deoxyuridine) which is incorporated into DNA during active DNA synthesis). […] EdU was detected after permeabilization by staining cells with Click-iT Plus reaction cocktail containing the Fluorescent dye picolylazide for 30 min at room temperature. Samples were then washed and analyzed using flow cytometer. […] Data were analyzed using FlowJo software. FIGS. 7A-B show MCF7-DoxyR cells have a reduced ability to proliferate by more than 60%, as measured using EdU-incorporation.

[4] = system: MCF7-DoxyR cells; experiment: Cell migration, wound healing scratch assay; format: cell-based; settings: MCF7-DoxyR cells (chronic doxycycline) vs MCF7 cells, 24 h
Source text: To test this hypothesis, the inventors generated a cancer cell sub-population metabolically synchronized toward a glycolytic phenotype by chronically treating MCF7 cells with the FDA-approved antibiotic doxycycline, a mitochondrial inhibitor. Briefly, MCF7 cells were obtained from ATCC and cultured in DMEM (Sigma Aldrich). MCF7 cells resistant to doxycycline (MCF7-DoxyR cells) were selected by a stepwise exposure to increasing concentrations of doxycycline. Specifically, MCF7 cells were initially exposed to 12.5 μM doxycycline, followed by 3 weeks of treatment with 25 μM doxycycline, followed by 3 weeks of treatment with 50 μM doxycycline. The doxycycline-resistant MCF7 cells were then routinely maintained in regular medium supplemented with 25 μM Doxycycline. It should be appreciated that other cancer cell lines and other mitochondrial (oxidation) inhibitors may be used.
The present approach further involves methods of analyzing the effects of chronic treatment on functionality by considering cell migration. […] The migration assay was evaluated using Incucyte Zoom (Essen Bioscience). The rate of migration was measured by quantifying the % of wound closure area, determined using the software ImageJ, according to the formula: % of wound closure=[(At=0 h−At=Δ h)/At=0 h]×100%. […] Statistical significance was measured using the t-test. […]

[5] = Homo sapiens, mammosphere formation, MCF7 DoxyR cells, read-out: IC-50, DoxyR CSC propagation
[6] = Homo sapiens, 120 h, mammosphere formation, MCF7 DoxyR cells, 5 days, read-out: IC-50, DoxyR CSC propagation
[7] = Homo sapiens, MCF7, 120 h, read-out: inhibition of CSC propagation of MCF7-DoxyR cells

IC50 [1, 5]: ~1 µM
SMILES: COc1ccc2cc3[n+](cc2c1OC)CCc1cc2c(cc1-3)OCO2 [Berberine, Berberine Chloride]

IC50 [1, 5]: 100 to 250 µM
SMILES: O=C1O[C@H]([C@@H](O)CO)C(O)=C1O [Vitamin C, ascorbic acid]
inhibition at 250 µM ([1]; Homo sapiens, MCF7, 250 μM Vitamin C): > 90%
inhibition at 500 µM ([1]; Homo sapiens, MCF7, 500 μM Vitamin C): 100%
fold more sensitive, DoxyR CSCs vs control MCF7 CSCs ([1]; ratio of IC-50 in MCF7 CSCs to DoxyR CSCs, identical assay conditions): 4-10 fold
IC50 [2]: 1000 µM

IC50 [1, 6]: ~0.5 µM
SMILES: CCc1c2c(nc3ccc(OC(=O)N4CCC(N5CCCCC5)CC4)cc13)-c1cc3c(c(=O)n1C2)COC(=O)[C@]3(O)CC [Irinotecan]

IC50 [1, 5]: 10 to 50 µM
SMILES: CC(C)(C)C(O)/C=C/c1ccc2c(c1)OCO2 (centres unmarked) [Stiripentol]

IC50 [1, 6]: ~0.1 µM
SMILES: O=C(Nc1ccc([N+](=O)[O-])cc1Cl)c1cc(Cl)ccc1O [Niclosamide]

Second part, the compound before the results:

SMILES: O=CC[C@@H](O)[C@H](O)[C@H](O)CO [2-DG, 2-deoxy-glucose]
inhibition at 10000 µM ([1]; Homo sapiens, MCF7, 10 mM 2-DG, read-out: inhibition of propagation of DoxyR CSCs): > 90%
inhibition at 20000 µM ([1]; Homo sapiens, MCF7, 20 mM 2-DG, read-out: inhibition of propagation of DoxyR CSCs): 100%

SMILES: O=C1C(O)=C([C@H]2CC[C@H](c3ccc(Cl)cc3)CC2)C(=O)c2ccccc21 [Atovaquone]
inhibition at 1 µM ([1]; Homo sapiens, MCF7, 120 h, 1 μM Atovaquone, mammospheres, 5 days): > 85%

SMILES: CNC(=O)c1cc(Oc2ccc(NC(=O)Nc3ccc(Cl)c(C(F)(F)F)c3)cc2)ccn1 [Sorafenib]
IC50 ([1]; Homo sapiens, MCF7, read-out: IC-50, DoxyR CSC propagation): 0.5 to 1 µM

SMILES: CCN(CC)CCCC(C)Nc1ccnc2cc(Cl)ccc12 (centres unmarked) [Chloroquine]
inhibition at 25 µM [1, 7]: > 75%
inhibition at 50 µM [1, 7]: > 90%

SMILES: C[C@H]1c2cccc(O)c2C(=O)C2=C(O)[C@]3(O)C(=O)C(C(N)=O)=C(O)[C@@H](N(C)C)[C@@H]3[C@@H](O)[C@@H]21 [doxycycline]
reduction in ability to proliferate (EdU-incorporation) [3]: more than 60%
reduction in cell migration (scratch assay) [4]: greater than 50%
